Data on one molecule can be found in publication PMC10066322 (Scientific Reports, 2023).

Test [1] addresses GCK (germinal center kinase). The settings on record: cited from earlier work.
Test [2] addresses T1, PARN1-430 (Homo sapiens, UniProt O95453).
T1 construct: expression of the C-terminal truncated protein (1-430 aa of PARN) was soluble; His tag (from the pCold I vector); made in house; host or cells: E. coli Rosetta 2 DE
T1 sequence (O95453 1-430): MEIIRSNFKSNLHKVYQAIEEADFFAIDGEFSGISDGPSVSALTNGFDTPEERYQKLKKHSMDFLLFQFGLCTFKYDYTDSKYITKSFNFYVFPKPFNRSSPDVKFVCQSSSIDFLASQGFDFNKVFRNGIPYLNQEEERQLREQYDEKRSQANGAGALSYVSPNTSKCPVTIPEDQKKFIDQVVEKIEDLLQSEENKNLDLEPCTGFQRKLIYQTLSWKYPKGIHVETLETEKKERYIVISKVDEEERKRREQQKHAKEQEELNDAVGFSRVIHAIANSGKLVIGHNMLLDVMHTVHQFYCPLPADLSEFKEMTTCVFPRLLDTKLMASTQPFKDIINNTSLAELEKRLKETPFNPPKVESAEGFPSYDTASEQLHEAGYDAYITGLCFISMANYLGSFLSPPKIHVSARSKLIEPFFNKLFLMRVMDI
As to the kind of experiment: Inhibition fluorescence assay (FAM-RNA / BHQ quencher deadenylase assay). The format is biochemical. Here is the method:
To easily screen compounds for inhibition of PARN activity, we developed an assay in which fluorescence was used as the readout for monitoring PARN1-430’s activity (Fig. 3a). This assay was modeled on a similar assay developed for Caf1/CNOT7 deadenylase. In this assay, PARN1-430 was incubated with a 5′-fluorescently labeled oligoadenylated RNA. In the absence of deadenylation, this substrate RNA can effectively hybridize to a complementary DNA oligonucleotide with a quencher on its 3′ end leading to a loss of fluorescence (Fig. 3a). When the RNA substrate is deadenylated, the quenching oligonucleotide is no longer able to stably hybridize leading to an increase in fluorescence in the reaction.
Figure 3 Developing a fluorescence assay for PARN inhibition. (a) Cartoon depicting the inhibition fluorescence assay. Schematic diagram of the fluorescence-based deadenylase assay. The assay is based on a 5′ FAM-labelled RNA oligonucleotide substrate. After incubation of the substrate in the presence of PARN1-430, the reaction is stopped and a 3′ BHQ-labelled DNA oligonucleotide probe complementary to the RNA substrate is added. The fluorescence of intact substrate is quenched upon probe hybridization because of the proximity of the BHQ […]. In contrast, the BHQ-labelled probe cannot hybridize to the FAM-labelled reaction product allowing detection of FAM fluorescence. […] 2-way ANOVA, multiple comparisons test, average ± SD, n = 3 replicates. *P < 0.05, **P < 0.005, ***P < 0.001, ****P < 0.0001, n.s. was not indicated. […] Dotted-line represents RNA and RNA + Quencher data. One-way ANOVA, multiple comparisons test, average ± SD, n ≥ 3 replicates. *P < 0.05, **P < 0.005, ***P < 0.001, ****P < 0.0001, n.s. was not indicated. (d) PARN1-430 and PARNmut enzymatic activity measured at different time points. […] Dotted-line represents RNA and RNA + Quencher data. 2-way ANOVA, multiple comparisons test, average ± SD, n = 3 replicates. *P < 0.05, **P < 0.005, ***P < 0.001, ****P < 0.0001, n.s. was not indicated.
Quenched reaction was incubated at room temperature for 10–60 min and fluorescence was measured using Fluorescein wavelength measurement.

For test [3], the target named is T1, PARN1-430. As to the kind of experiment: Gel assay of poly(A) RNA shortening by PARN1-430. The format is biochemical. Here is the method:
PARN1-430 was incubated with a fluorescently labeled RNA with a CCUUUCC sequence followed by a 9 nucleotide-long poly(A) tail and the reaction product was visualized on denaturing acrylamide gels. We observed that PARN removed the 3′ oligo(A) tail from the RNA substrate (Fig. 2c and d). […] Moreover, we observed that PARN is inhibited when treated with adenosine monophosphate (AMP), as has been reported previously.
1 µL of protein (73 nM as final concentration) (stock protein is diluted in 1× lysis buffer (HEPES KOH, pH 7.4, 30 mM, KOAc 100 mM, and Mg(Oac)2 2 mM) was added to 4 µL of 2.5× reaction buffer (Tris–HCl pH 7.4, 10 mM, KCl 50 mM, MgCl2 5 mM). If drug was added, reaction was pre-incubated with drugs for 10 min before 5 µL of RNA (5 µM as final concentration) was added. The reaction was incubated at 37 °C for 20 min. After the incubation, the reaction was either diluted with 2× loading buffer and heated to 95 °C for 5 min for gel or quenched by adding 10 µL of quencher solution (30 µM of 3′-BHQ labeled quench DNA in 1% SDS). Quenched reaction was incubated at room temperature for 10–60 min and fluorescence was measured using Fluorescein wavelength measurement.
15% TBE-Urea gel (Thermo Fisher Scientific) was prerun at 20W for 30 min. RNAs from the reaction was loaded into 15% TBE gels and run at 300 V for 35 min. The gel was visualized using iBright (Invitrogen FL1500).

A further test concerns hTR levels in Hela cells. As to the kind of experiment: hTR levels in Hela cells by RT-qPCR. The format is cell-based, human. To be noted: 50 µM, 2 days, RT-qPCR vs DMSO. As for the experimental part:
48 h after transfection/drug treatment, cells were collected for either RNA or protein analysis.
Extracted total RNA was reverse transcribed using Mir-X miRNA first strand synthesis kit (Taraka, Cat # 638315) to make cDNA and qPCR was perfomred with iQ SYBR Green Supermix (BioRad, Cat. No. 1708880) with […] (forward primer) and […] (reverse primer) for hTR. The RNA levels were normalized using 5S rRNA as a housekeeping gene.

Turning to `Cc1ccc(Nc2ncc3c(n2)N(C)C(=O)N(c2cc(NC(=O)c4cccc(C(F)(F)F)c4)ccc2C)C3)cn1` [GNF-7], the IC50 is 0.008 µM in test [1] and 35 ± 15 µM at PARN1-430 [2] (GNF-7 on PARN1-430, 10 min pre-treatment, non-linear fit). For the same molecule, the “inhibitory effect on PARN1-430, fluorescence assay” value against PARN1-430 [2] (among 15 docking compounds tested) is “strongest inhibitory effect”. The “PARN inhibitor in vitro” value on PARN1-430 [2] (computational docking compounds, fluorescence assay and gels, PARN1-430 pretreated with drug 10 min) is given as “Yes”. Besides, at PARN1-430 [3], the “inhibitory effect on PARN1-430, gel assay” value is “most effective PARN1-430 inhibitor”. Also, in the test with hTR levels in Hela cells, the hTR levels entry is “decreased”.

A word on the IC50: it is the midpoint of a concentration-inhibition curve.
